Biological target: T1, Human ATX protein (Homo sapiens, UniProt Q13822)
T1 construct: made in house
Assay: Autotaxin (ATX) assay, FRET with FS-3 substrate
Format: biochemical
Conditions: upper bound bins (no greater than 100, 250 or 500 nM); FS-3 2 μM, ATX 1.0 μg/mL
Method in brief: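 Hydrolysis of the FRET substrate FS-3 (2 μM final) unquenches fluorescein, read at excitation 485 nm and emission 538 nm after 2 h at room temperature, protected from light. Purified human ATX (1.0 μg/mL) and compound were first incubated for 30 min in pH 7.4 Tris/salt buffer containing 1 mg/mL fatty acid-free BSA.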

| Compound | IC50 |
| --- | --- |
| CC(Nc1cc2n(n1)CCCN(C(=O)OCc1cc(C(F)(F)F)cc(C(F)(F)F)c1)C2)C(=O)O (stereo not drawn) [Example 361, 2-((5-(((3,5-bis(trifluoromethyl)benzyl)oxy)carbonyl)-5,6,7,8-tetra-hydro-4H-pyrazolo[1,5-a][1,4]diazepin-2-yl)amino)propanoic acid] | ≤ 250 nM |
| O=C(OCc1cc(C(F)(F)F)cc(C(F)(F)F)c1)N1CCCn2nc(C3=CCNCC3)cc2C1 [Example 373, 3,5-bis(trifluoromethyl)benzyl 2-(1,2,3,6-tetrahydropyridin-4-yl)-7,8-dihydro-4H-pyrazolo[1,5-a][1,4]diazepine-5(6H)-carboxylate] | ≤ 100 nM |
| CC(C)(C)OC(=O)N1CCC(c2cc3n(n2)CCCN(C(=O)OCc2cc(C(F)(F)F)cc(C(F)(F)F)c2)C3)CC1 [Example 374, 3,5-bis(trifluoromethyl)benzyl 2-(1-(tert-butoxycarbonyl)piperidin-4-yl)-7,8-dihydro-4H-pyrazolo[1,5-a][1,4]diazepine-5(6H)-carboxylate] | ≤ 100 nM |
| O=C(OCc1cc(C(F)(F)F)cc(C(F)(F)F)c1)N1CCCn2nc(C3=CC4CCC(C3)N4)cc2C1 (stereo not drawn) [Example 376] | ≤ 100 nM |
| O=C(OCc1cc(C(F)(F)F)cc(C(F)(F)F)c1)N1CCCn2nc(C3CC4CCC(C3)N4)cc2C1 (stereo not drawn) [Example 377] | ≤ 100 nM |
| CN1C2C=C(c3cc4n(n3)CCCN(C(=O)OCc3cc(C(F)(F)F)cc(C(F)(F)F)c3)C4)CC1CC2 (stereo not drawn) [Example 379] | ≤ 100 nM |
| CN1C2CCC1CC(c1cc3n(n1)CCCN(C(=O)OCc1cc(C(F)(F)F)cc(C(F)(F)F)c1)C3)C2 (stereo not drawn) [Example 381] | ≤ 100 nM |
| O=C(OCc1cc(C(F)(F)F)cc(C(F)(F)F)c1)N1CCCn2nc(C3CCNC3)cc2C1 (stereo not drawn) [Example 384] | ≤ 250 nM |
| CN1CCC(c2cc3n(n2)CCCN(C(=O)OCc2cc(C(F)(F)F)cc(C(F)(F)F)c2)C3)C1 (stereo not drawn) [Example 385] | ≤ 250 nM |
| CC(N)c1cc2n(n1)CCN(C(=O)OCc1cc(C(F)(F)F)cc(C(F)(F)F)c1)C2 (stereo not drawn) [Example 395, 3,5-bis(Trifluoromethyl)benzyl 2-(1-aminoethyl)-6,7-dihydropyrazolo[1,5-a]pyrazine-5(4H)-carboxylate] | ≤ 100 nM |
| CC(O)c1cc2n(n1)CCN(C(=O)OCc1cc(C(F)(F)F)cc(C(F)(F)F)c1)C2 (stereo not drawn) [Example 396, 3,5-bis(Trifluoromethyl)benzyl 2-(1-hydroxyethyl)-6,7-dihydropyrazolo[1,5-a]pyrazine-5(4H)-carboxylate] | ≤ 100 nM |
| CC(C)(C)OC(=O)N1CCC(c2cc3n(n2)CCN(C(=O)OCc2cc(C(F)(F)F)cc(C(F)(F)F)c2)C3)CC1 [Example 398, 3,5-bis(trifluoromethyl)benzyl 2-(1-(tert-butoxycarbonyl)piperidin-4-yl)-6,7-dihydropyrazolo[1,5-a]pyrazine-5(4H)-carboxylate] | ≤ 100 nM |
| O=C(O)c1nn2c(c1F)CN(C(=O)OCc1cc(Cl)cc(C(F)(F)F)c1)CCC2 [Example 399, 5-(((3-chloro-5-(trifluoromethyl)benzyl)oxy)carbonyl)-3-fluoro-5,6,7,8-tetrahydro-4H-pyrazolo[1,5-a][1,4]diazepine-2-carboxylic acid] | ≤ 100 nM |
| CON(C)C(=O)c1cc2n(n1)CCN(C(=O)OCc1cc(C(F)(F)F)cc(C(F)(F)F)c1)C2 [Example 400, 3,5-bis(trifluoromethyl)benzyl 2-(methoxy(methyl)carbamoyl)-6,7-dihydropyrazolo[1,5-a]pyrazine-5(4H)-carboxylate] | ≤ 100 nM |
| CC(=O)c1cc2n(n1)CCN(C(=O)OCc1cc(C(F)(F)F)cc(C(F)(F)F)c1)C2 [Example 401, 3,5-bis(trifluoromethyl)benzyl 2-acetyl-6,7-dihydropyrazolo[1,5-a]pyrazine-5(4H)-carboxylate] | ≤ 500 nM |
| CCOC(=O)c1cc2n(n1)CCN(C(=O)OCc1cc(Cl)cc(C(F)(F)F)c1)C2 [Example 402, 5-(3-chloro-5-(trifluoromethyl)benzyl) 2-ethyl 6,7-dihydropyrazolo[1,5-a]pyrazine-2,5(4H)-dicarboxylate] | ≤ 100 nM |
| CCOC(=O)c1cc2n(n1)CCN(C(=O)OCc1cc(C(F)(F)F)cc(C(F)(F)F)c1)C2 [Example 403] | ≤ 100 nM |
| CCOC(=O)c1cc2n(n1)CCCN(C(=O)OCc1cc(Cl)cc(C(F)(F)F)c1)C2 [Example 404] | ≤ 100 nM |

Now from value to compound:

| IC50 | Compound |
| --- | --- |
| ≤ 100 nM | CCN1CCN(c2cc3n(n2)CCCN(C(=O)OCc2cc(C(F)(F)F)cc(C(F)(F)F)c2)C3)CC1 [Example 354] |
| ≤ 100 nM | CN1CCCN(c2cc3n(n2)CCCN(C(=O)OCc2cc(C(F)(F)F)cc(C(F)(F)F)c2)C3)CC1 [Example 355] |
| ≤ 100 nM | CC(C)N1CCN(c2cc3n(n2)CCCN(C(=O)OCc2cc(C(F)(F)F)cc(C(F)(F)F)c2)C3)CC1 [Example 356] |
| ≤ 100 nM | CCCN1CCN(c2cc3n(n2)CCCN(C(=O)OCc2cc(C(F)(F)F)cc(C(F)(F)F)c2)C3)CC1 [Example 357] |
| ≤ 100 nM | O=C(OCc1cc(C(F)(F)F)cc(C(F)(F)F)c1)N1CCCn2nc(N3CCN(CCO)CC3)cc2C1 [Example 358] |
| ≤ 100 nM | O=C(OCc1cc(C(F)(F)F)cc(C(F)(F)F)c1)N1CCCn2nc(N3CCC4NCCC43)cc2C1 (stereo not drawn) [Example 359] |
| ≤ 100 nM | CN1CCC2C1CCN2c1cc2n(n1)CCCN(C(=O)OCc1cc(C(F)(F)F)cc(C(F)(F)F)c1)C2 (stereo not drawn) [Example 360] |
| ≤ 100 nM | CCC(Nc1cc2n(n1)CCCN(C(=O)OCc1cc(C(F)(F)F)cc(C(F)(F)F)c1)C2)C(=O)O (stereo not drawn) [Example 362] |
| ≤ 100 nM | CC(C)C(Nc1cc2n(n1)CCCN(C(=O)OCc1cc(C(F)(F)F)cc(C(F)(F)F)c1)C2)C(=O)O (stereo not drawn) [Example 363] |
| ≤ 100 nM | O=C(OCc1cc(C(F)(F)F)cc(C(F)(F)F)c1)N1CCCn2nc(-c3ccncc3)cc2C1 [Example 367] |
| ≤ 100 nM | Cc1cc(-c2cc3n(n2)CCCN(C(=O)OCc2cc(C(F)(F)F)cc(C(F)(F)F)c2)C3)ccn1 [Example 368] |
| ≤ 100 nM | O=C(OCc1cc(Cl)cc(C(F)(F)F)c1)N1CCCn2nc(-c3ccncc3)cc2C1 [Example 369, 3-chloro-5-(trifluoromethyl)benzyl 2-(pyridin-4-yl)-7,8-dihydro-4H-pyrazolo[1,5-a][1,4]diazepine-5(6H)-carboxylate] |
| ≤ 100 nM | Cc1cc(-c2cc3n(n2)CCCN(C(=O)OCc2cc(Cl)cc(C(F)(F)F)c2)C3)ccn1 [Example 370] |
| ≤ 100 nM | CN1CC=C(c2cc3n(n2)CCCN(C(=O)OCc2cc(C(F)(F)F)cc(C(F)(F)F)c2)C3)CC1 [Example 371, 3,5-bis(trifluoromethyl)benzyl 2-(1-methyl-1,2,3,6-tetrahydropyridin-4-yl)-7,8-dihydro-4H-pyrazolo[1,5-a][1,4]diazepine-5(6H)-carboxylate] |
| ≤ 100 nM | CN1CCC(c2cc3n(n2)CCCN(C(=O)OCc2cc(C(F)(F)F)cc(C(F)(F)F)c2)C3)CC1 [Example 372, 3,5-bis(trifluoromethyl)benzyl 2-(1-methylpiperidin-4-yl)-7,8-dihydro-4H-pyrazolo[1,5-a][1,4]diazepine-5(6H)-carboxylate] |
| ≤ 100 nM | O=C(OCc1cc(C(F)(F)F)cc(C(F)(F)F)c1)N1CCCn2nc(C3CCNCC3)cc2C1 [Example 375, 3,5-bis(trifluoromethyl)benzyl 2-(piperidin-4-yl)-7,8-dihydro-4H-pyrazolo[1,5-a][1,4]diazepine-5(6H)-carboxylate] |
| ≤ 100 nM | CC1C=C(c2cc3n(n2)CCCN(C(=O)OCc2cc(C(F)(F)F)cc(C(F)(F)F)c2)C3)CC(C)N1 (stereo not drawn) [Example 378] |
| ≤ 100 nM | O=C(OCc1cc(C(F)(F)F)cc(C(F)(F)F)c1)N1CCCn2nc(C3CCCNC3)cc2C1 (stereo not drawn) [Example 380] |
| ≤ 100 nM | CC1CC(c2cc3n(n2)CCCN(C(=O)OCc2cc(C(F)(F)F)cc(C(F)(F)F)c2)C3)CC(C)N1 (stereo not drawn) [Example 382] |
| ≤ 100 nM | CC(C)(C)OC(=O)N1CCC(c2cc3n(n2)CCCN(C(=O)OCc2cc(C(F)(F)F)cc(C(F)(F)F)c2)C3)C1 (stereo not drawn) [Example 383] |
| ≤ 100 nM | O=C(O)Cc1cc2n(n1)CCCN(C(=O)OCc1cc(C(F)(F)F)cc(C(F)(F)F)c1)C2 [Example 386, 2-(5-(((3,5-bis(Trifluoromethyl)benzyl)oxy)carbonyl)-5,6,7,8-tetrahydro-4H-pyrazolo[1,5-a][1,4]diazepin-2-yl)acetic acid] |
| ≤ 100 nM | CC(C(=O)O)c1cc2n(n1)CCCN(C(=O)OCc1cc(C(F)(F)F)cc(C(F)(F)F)c1)C2 (stereo not drawn) [Example 387, 2-(5-(((3,5-bis(Trifluoromethyl)benzyl)oxy)carbonyl)-5,6,7,8-tetrahydro-4H-pyrazolo[1,5-a][1,4]diazepin-2-yl)propanoic acid] |
| ≤ 100 nM | CC(C)(C(=O)O)c1cc2n(n1)CCCN(C(=O)OCc1cc(C(F)(F)F)cc(C(F)(F)F)c1)C2 [Example 388] |
| ≤ 100 nM | NC(C(=O)O)c1cc2n(n1)CCCN(C(=O)OCc1cc(C(F)(F)F)cc(C(F)(F)F)c1)C2 (stereo not drawn) [Example 390, 2-Amino-2-(5-(((3,5-bis(trifluoromethyl)benzyl)oxy)carbonyl)-5,6,7,8-tetrahydro-4H-pyrazolo[1,5-a][1,4]diazepin-2-yl)acetic acid] |
| ≤ 100 nM | Cc1nc(-c2cc3n(n2)CCCN(C(=O)OCc2cc(C(F)(F)F)cc(C(F)(F)F)c2)C3)no1 [Example 392, 3,5-bis(Trifluoromethyl)benzyl 2-(5-methyl-1,2,4-oxadiazol-3-yl)-7,8-dihydro-4H-pyrazolo[1,5-a][1,4]diazepine-5(6H)-carboxylate] |
| ≤ 100 nM | CN1CCN(c2cc3n(n2)CCN(C(=O)OCc2cc(C(F)(F)F)cc(C(F)(F)F)c2)C3)CC1 [Example 393, 3,5-bis(Trifluoromethyl)benzyl 2-(4-methylpiperazin-1-yl)-6,7-dihydropyrazolo[1,5-a]pyrazine-5(4H)-carboxylate] |
| ≤ 100 nM | O=C(OCc1cc(C(F)(F)F)cc(C(F)(F)F)c1)N1CCn2nc(N3CCNCC3)cc2C1 [Example 394, 3,5-bis(trifluoromethyl)benzyl 2-(piperazin-1-yl)-6,7-dihydropyrazolo[1,5-a]pyrazine-5(4H)-carboxylate] |
